According to publication PMC11284790, “Targeting Myeloperoxidase Ameliorates Gouty Arthritis: A Virtual Screening Success Story” (Journal of Medicinal Chemistry, 2024):
Where two headings read alike, the source gives them in different places.

Experiments:
[1] = test system: MSU-induced paw edema; test: MSU-induced paw edema, intraperitoneal treatment; type: in vivo; details: for reduction of paw edema (time-dependent AUC) vs VEH + MSU: 30 mg/kg i.p.; for effect on paw edema over time: i.p. 30 min before MSU, mefenamic acid 30 mg/kg, RL6 3, 10, 30, RL7 0.3, 3, 30, ZINC9089086 3, 10, 30 mg/kg, 6 h
Description: MSU-induced edema was performed as previously described.[22] The compounds were prepared by dilution in a solution containing 0.5% Tween 80 and 5% DMSO and then resuspended in PBS prior to administration. The animals were treated intraperitoneally (i.p.) with the following substances: vehicle (VEH: 5% DMSO; 0.5% Tween 80 in PBS), mefenamic acid (a nonsteroidal anti-inflammatory drug at a dosage of 30 mg/kg), RL6 (at doses of 3, 10, and 30 mg/kg), RL7 (at doses of 0.3, 3, and 30 mg/kg), or ZINC9089086 (at doses of 3, 10, and 30 mg/kg).[31] After 30 min, the mice were anesthetized using inhaled isoflurane (2% v/v in O2). A hypodermic syringe with a 31-gauge needle (BD, Franklin Lakes, NJ, USA) was used to administer the vehicle (VEH: PBS, 30 μL) or MSU (1.5 mg/30 μL) via the intraplantar route (i.pl.), into the right hind paw (Figure 9).
(§1) Paw volume (mL) was measured at various time points, including before injection (baseline, B), […] 1, 2, 3, 4, 5, and 6 h following MSU injection using a plethysmometer (Ugo Basile, Comerio, Italy) (Figure 7). For this, the injected hind paw was immersed into the dipping solution (6 mM NaCl diluted in distilled water and added with 2 mL/L of a wetting compound provided by the manufacturer) until the ankle. The extent of edema was quantified as a change in paw volume (Δ mL) by subtracting the basal paw volume from the volume of the paw measured at each time point. To evaluate the antiedematogenic effect of orally administered MPO inhibitors (p.o.), the animals were fasted for 1 h and then treated with equimolar doses of the following substances: vehicle (VEH: 5% DMSO; 0.5% tween 80 in PBS), mefenamic acid (30 mg/kg), RL 6 (33 mg/kg), RL 7 (54 mg/kg), RL 21 (30 mg/kg), or ZINC9089086 (34 mg/kg). After 1 h, the anesthetized mice (2% isoflurane, v/v in O2) received either the vehicle (PBS, 30 μL, i.pl.) or 1.5 mg/30 μL MSU (i.pl.). The paw volume was evaluated at the same time points as previously described. The percentage of edema inhibition by the compounds was calculated discounting the paw volume of mice that received oral or intraperitoneal vehicle and PBS intraplantar (VEH + VEH).

[2] = test system: MSU-induced paw edema; test: MSU-induced paw edema, oral treatment; type: in vivo, male C57BL/6 mice
Description: as §1

[3] = test system: total peroxidase activity; test: Paw tissue total peroxidase activity after MSU; type: in vivo, male C57BL/6 mice; details: intraperitoneal pretreatment (RL6 30 mg/kg), tissue collected at 6 h
Description: After the assessment of paw edema was completed, the mice were immediately anesthetized by inhalation of 2% isoflurane mixture in oxygen (O2). Subsequently, the surface of the hind paws was collected for the measurement of total peroxidase activity, IL-6, and IL-1β. These tissue samples were then frozen using dry ice and stored at −80 °C until further analysis. The frozen tissues were later pulverized into a fine powder using liquid nitrogen and homogenized in a phosphate buffer (100 mM, pH 7.4). For the analysis of total peroxidase activity, a portion of this homogenate was mixed with hexadecyltrimethylammonium (1% HTAB, pH 6.0), vigorously vortexed, and sonicated. The resulting mixture was then centrifuged at 10,000g for 10 min, at 4 °C, and heated at 60 °C for 2 h. The sample of each supernatant was incubated with a solution containing 50 mM phosphate buffer, 0.164 mg/mL of o-dianisidine dihydrochloride, and H2O2 (0.0005%, pH 6.0). […] Each unit represents the capacity to degrade 1 μmol of H2O2 per minute.[81]

[4] = test system: IL-1β; test: Paw tissue IL-1β level after MSU (ELISA); type: in vivo, male C57BL/6 mice; details: intraperitoneal pretreatment (RL6 30 mg/kg), tissue collected at 6 h
Description: (§2) The remaining part of the homogenate was treated with a solution of protease/phosphatase inhibitors (1 mM phenylmethylsulfonyl fluoride, 10 μg/mL leupeptin, and 10 μg/mL trypsin inhibitor) and centrifuged at 10,000g (10 min at 4 °C). The obtained supernatants were subjected to 1:2 dilution in PBS and subsequently used for the assessment of IL-1β and IL-6 using murine enzyme-linked immunosorbent assay kits, specifically a sandwich ELISA technique, following manufacturer’s instructions (BioLegend, CA, USA). The protein content within the samples was determined by using the Bradford method (1976). The results were quantified and expressed in pg/mg of protein (Bio-Rad, Hercules, CA, USA).[76]

[5] = test system: IL-6; test: Paw tissue IL-6 level after MSU (ELISA); type: in vivo, male C57BL/6 mice; details: intraperitoneal pretreatment (RL6 30 mg/kg), tissue collected at 6 h
Description: as §2

[6] = test system: dHL-60 cells; test: Cellular production of HOCl, PMA-activated dHL-60 cells; type: cell-based, human; details: 20 μM compound, 100 nM PMA, 1 h
Description: Human promyelocytic leukemic cells (HL-60) (BCRJ, RJ, Brazil) were cultivated in RPMI with fetal bovine serum (10%), penicillin (62 μg/mL), and streptomycin (100 μg/mL) at 37 °C in 5% CO2 atmosphere. HL-60 cells were differentiated to neutrophil-like (dHL-60) by DMSO (1.25%) during 4 days.[25]
(§3) Measurement of HOCl production by 1 × 10^6 dHL-60 or neutrophils was carried out in PBS (10 mM Na2HPO4, 2 mM KH2PO4, 0.5 mM MgCl2, 1 mM CaCl2, 140 mM NaCl, 5.5 mM dextrose, 100 μM diethylenetriaminepentaacetic acid, 5 mM taurine) in the presence of the compounds (20 μM in 0.3% DMSO) or 0.3% DMSO (control). Cells were activated with phorbol myristate acetate (100 nM) at 37 °C for 1 h. After incubation, cells were centrifuged at 1400 rpm for 10 min, and the supernatant was diluted threefold. Finally, 240 μL of this supernatant was added to 60 μL acetate buffer (400 mM, pH 5.4) containing NaI (100 μM) and TMB (2 mM in DMFO 10%). Taurine chloramine was quantified by TMB oxidation at 655 nm.[33] Inhibition of HOCl production was calculated as the percentage of the control (vehicle).

[7] = test system: human peripheral blood neutrophils; test: Cellular production of HOCl, PMA-activated peripheral blood neutrophils; type: cell-based; details: 20 μM compound, 100 nM PMA, 1 h
Description: Human neutrophils were obtained from healthy individuals as previously described.[24] The experiments were approved by the local ethics committee (CEPSH-ICB 1435/18).
as §3

[8] = test system: human neutrophils; test: MSU-induced NETosis assay (sytox green fluorescence microscopy); type: cell-based; details: 20 μM compound, MSU 250 μg/mL, 90 min
Description: NETosis assay was conducted on human neutrophils adhered to lysine-coated glass coverslips as previously reported.[80] After neutrophils’ adhesion, the compounds were diluted in RPMI medium (free of phenol red and fetal bovine serum) at a final concentration of 20 μM (0.15% DMSO) and added to the cells for 15 min at 37 °C in a 5% CO2 atmosphere. Then, MSU crystals (250 μg/mL), known to induce NETosis, were added. After 90 min incubation, the medium was carefully removed, paraformaldehyde was added (500 μL at 4%), and incubated at 4 °C overnight. In the following day, paraformaldehyde was removed, and cells were washed threefold with tris-HCl buffer (20 mM, pH 7.4) and kept into the same buffer at 4 °C. Tris-HCl buffer was carefully removed, and DNA was stained by adding 500 μL SYTOX Green (500 nM diluted in tris-HCl buffer). The system was kept for 30 min at room temperature, protected from light. After staining, the coverslips were mounted over the glass slides using ProLong Diamond Antifade Mountant fixation medium. Fluorescence images were acquired in an Axiovert 200 (Zeiss) fluorescence microscope with a 20x/0.4 objective and Zeiss Filter Set 09, λex = 450–490 nm, λem = above 515 nm. Images were taken by an Axiocam HR R3 camera device.

[9] = biological target: T1, Human leukocyte MPO (Homo sapiens, UniProt P05164); details: read-out: previously reported IC50 for MPO; cited from earlier work
T1 sequence (P05164 279-745 limits assumed): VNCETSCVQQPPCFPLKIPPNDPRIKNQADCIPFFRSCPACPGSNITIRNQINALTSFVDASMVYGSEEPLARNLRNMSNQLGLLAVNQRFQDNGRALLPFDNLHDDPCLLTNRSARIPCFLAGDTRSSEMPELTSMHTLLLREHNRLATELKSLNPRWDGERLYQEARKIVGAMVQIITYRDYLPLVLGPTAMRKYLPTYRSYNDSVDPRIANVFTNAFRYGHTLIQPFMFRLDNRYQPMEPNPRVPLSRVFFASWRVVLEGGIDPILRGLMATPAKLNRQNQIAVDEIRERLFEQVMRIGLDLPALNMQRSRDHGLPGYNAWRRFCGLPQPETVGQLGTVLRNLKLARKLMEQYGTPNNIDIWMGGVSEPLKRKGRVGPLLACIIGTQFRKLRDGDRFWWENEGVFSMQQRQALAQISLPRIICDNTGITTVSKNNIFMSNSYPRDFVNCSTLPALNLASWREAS
T1 sequence (P05164 165-278 limits assumed): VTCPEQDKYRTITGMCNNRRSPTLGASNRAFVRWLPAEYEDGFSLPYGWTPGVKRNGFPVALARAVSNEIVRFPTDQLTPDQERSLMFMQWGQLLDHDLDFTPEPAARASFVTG

[10] = biological target: T1, Human leukocyte MPO; test: MPO chlorinating activity assay (taurine chloramine/TMB); type: biochemical; design: Human leukocyte MPO (EC 1.7.1.11) was purchased from Planta Natural Products; purchased Planta Natural Products (Vienna, Austria); host or cells: human leukocytes
Description: Chlorinating activity was carried out in phosphate buffer (20 mM, pH 7.4). Compounds (20 μM) were dissolved in 0.03% DMSO, MPO (10 nM), diethylenetriaminepentaacetic acid (100 μM), cetyltrimethylammonium chloride (0.03%), NaCl (140 mM), and taurine (5 mM).[31] This mixture was incubated at 37 °C for 15 min before adding 40 μM hydrogen peroxide. The reaction ran for 8 min and was then stopped by catalase (20 μg/mL). Oxidation of TMB (2 mM) (3,3,5,5-tetramethylbenzidine) by taurine chloroamine catalyzed by iodide (100 μM) was quantified at 650 nm.[33] Results were expressed as a percentage of the control (vehicle). IC50 was calculated by nonlinear regression using the Hill equation present in GraphPad Prism 5 software.

[11] = biological target: T1, Human leukocyte MPO; test: MPO peroxidatic activity assay (AmplexRed oxidation); type: biochemical; design: Human leukocyte MPO (EC 1.7.1.11) was purchased from Planta Natural Products; purchased Planta Natural Products (Vienna, Austria); host or cells: human leukocytes
Description: MPO peroxidase activity was kinetically monitored using the artificial peroxidase substrate AmplexRed, which is oxidized to resorufin and can be detected by fluorescence.[34] Reactions were carried out in phosphate buffer (50 mM, pH 7.4), MPO (100 pM), cetyltrimethylammonium chloride (0.03%), diethylenetriaminepentaacetic acid (100 μM), AmplexRed (30 μM), and compounds (20 μM in 0.3% DMSO). The reaction was started by adding 2 μM hydrogen peroxide. The reaction product was assessed by fluorescence at λex = 530 and λem = 580 nm. The initial velocity was calculated by the slope of the linear regression in the first minutes of reaction. Inhibition is represented as a percentage of the control (vehicle).

Row | Structure (SMILES) | reduction of paw edema (time-dependent AUC) vs VEH + MSU [1] [%] | effect on paw edema over time [1] | inhibition of edema vs VEH + MSU ([2]; 34 mg/kg po) | reduction in total peroxidase activity in hind paw tissue [3] | decrease in IL-1β levels in hind paw tissue [4] | effect on IL-6 levels in hind paw tissue [5] | inhibition of edema vs VEH + MSU ([2]; 30 mg/kg, positive control of the oral experiment (Figure 8 legend: i.p.)) [%] | inhibition of HOCl production in dHL-60 cells [6] | inhibition of HOCl production in peripheral blood neutrophils [7] | inhibition of MSU-induced NETosis [8] | IC50 [9] [µM] | IC50 ([10]; 10 nM MPO, 140 mM NaCl, pH 7.4) [µM] | inhibition at 20 µM ([10]; 20 μM compound, 10 nM MPO, 140 mM NaCl, 5 mM taurine, 40 μM H2O2, pH 7.4, read-out: % Inhibition (at 20 μM) Chlorinating) [%] | inhibition at 20 µM ([10]; supplementary csv copy of Table 1, read-out: % Inhibition (Chlorinating)) [%] | inhibition at 20 µM ([11]; 20 μM compound, 100 pM MPO, 30 μM AmplexRed, 2 μM H2O2, pH 7.4, read-out: % Inhibition (at 20 μM) Peroxidatic) [%] | inhibition at 20 µM ([11]; supplementary csv copy of Table 1, read-out: % Inhibition (Peroxidatic)) [%]
1 | CCc1c(O)[nH]c2nc3ccccc3n2c1=O [ZINC9089086] | 93.4 | inhibited paw edema at all of the tested doses | no significant inhibition | unable to decrease | unable to decrease | unable to decrease |  |  |  |  |  |  |  |  |  | 
2 | Cc1cccc(Nc2ccccc2C(=O)O)c1C [mefenamic acid, reference compound] | 91.1 | prevented paw edema for up to 4 h |  | unable to decrease | unable to decrease | unable to decrease | 77.3 |  |  |  |  |  |  |  |  | 
3 | CCCc1cc(=O)[nH]c(=S)[nH]1 [PTU, propylthiouracil, reference compound] |  |  |  |  |  |  |  | most effective | most effective | strongly inhibited | 3.38 | 5.25 | 92.3 ± 11.6 | 92.3 ± 11.6 | 94.1 ± 26.4 | 94.1 ± 26.4
